Active and inactive are the calls of the source. No cut-off for these calls is given here.
What was measured:
[1] = tested on: Quadruplex DNA; assay: Stabilization of c-MYC G4 quadruplex DNA (unknown origin) assessed as change in temperature incubated for 2 hrs in presence of duplex DNA by FRET assay; assay type: nucleic-acid assay
[2] = tested on: MDA-MB-231; assay: Antitumor activity against human MDA-MB-231 cells xenografted in BALB/c nude mouse assessed as reduction in tumor volume at 5 mg/kg, ip administered every other day for 20 days and measured every 4 days; assay type: functional, organism-based; conditions: time 20.0 day
[3] = Toxicity in BALB/c mouse xenografted with human MDA-MB-231 cells assessed as pain at 5 mg/kg, ip administered every other day for 20 days and measured every 4 days; assay type: organism-based; conditions: in vivo, 480 h, time 20 day
[4] = tested on: MDA-MB-231; assay: Cytotoxicity against human MDA-MB-231 cells assessed as reduction in cell viability at 0 to 20 uM by CCK-8 assay; assay type: functional, cell-based; conditions: dose 0-20 µM, time 24-72 hrs, TDE = time-dependent effect
[5] = tested on: Quadruplex DNA; assay: Stabilization of c-MYC G4 quadruplex DNA HRAS (unknown origin) assessed as change in temperature at which 50% protein unfold by circular dichroism melting assay
[6] = tested on: MDA-MB-231; assay: Induction of cell cycle arrest in human MDA-MB-231 cells assessed as accumulation of cells at G2/M phase at 1 uM incubated for 24 hrs by propidium iodide staining based flow cytometry analysis (reference value: 17.58%); assay type: functional
[7] = Toxicity in BALB/c mouse xenografted with human MDA-MB-231 cells assessed as effect on lung at 5 mg/kg, ip administered every other day for 20 days and measured every 4 days; assay type: organism-based; conditions: in vivo, 480 h, time 20 day
[8] = tested on: MDA-MB-231; assay: Induction of cell cycle arrest in human MDA-MB-231 cells assessed as accumulation of cells at G0/G1 phase at 4 uM incubated for 24 hrs by propidium iodide staining based flow cytometry analysis (reference value: 66.35%); assay type: functional
[9] = tested on: MDA-MB-231; assay: Cytotoxicity against human MDA-MB-231 cells assessed as inhibition of cell growth at 0 to 20 uM incubated for 48 hrs by CCK-8 assay; assay type: functional, cell-based; conditions: MDA-MB-231, 48 h
[10] = tested on: Quadruplex DNA; assay: Stabilization of c-MYC G4 quadruplex DNA Pu22 (unknown origin) assessed as temperature at which 50% protein unfold by circular dichroism melting assay; assay type: nucleic-acid assay
[11] = Toxicity in BALB/c mouse xenografted with human MDA-MB-231 cells assessed as effect on body weight at 5 mg/kg, ip administered every other day for 20 days and measured every 4 days; assay type: organism-based; conditions: in vivo, 480 h, time 20 day
[12] = tested on: Quadruplex DNA; assay: Stabilization of c-MYC G4 quadruplex DNA (unknown origin) assessed as change in temperature incubated for 2 hrs in presence of HRAS by FRET assay; assay type: nucleic-acid assay
[13] = tested on: MDA-MB-231; assay: Inhibition of colony formation in human MDA-MB-231 cells assessed as reduction in number of visible cell colonies at 0.1 to 0.4 uM measured after 14 days by crystal violet based staining analysis; assay type: functional; conditions: dose 0.1-0.4 µM, time 14.0 day
[14] = tested on: MDA-MB-231; assay: Induction of cell cycle arrest in human MDA-MB-231 cells assessed as accumulation of cells at G0/G1 phase at 2 uM incubated for 24 hrs by propidium iodide staining based flow cytometry analysis (reference value: 66.35%); assay type: functional
[15] = tested on: MDA-MB-231; assay: Inhibition of cell migration in human MDA-MB-231 cells assessed as reduction in migration at 1 to 4 uM measured after 24 to 48 hrs by wound healing assay; assay type: functional, cell-based; conditions: dose 1-4 µM, time 24-48 hrs
[16] = tested on: MDA-MB-231; assay: Induction of cell cycle arrest in human MDA-MB-231 cells assessed as upregulation of p21 accumulation at 1 to 4 uM measured after 24 hrs by Western blot analysis; assay type: functional, cell-based; conditions: dose 1-4 µM
[17] = tested on: MDA-MB-231; assay: Downregulation of c-MYC protein expression in human MDA-MB-231 cells at 1 to 4 uM measured after 24 hrs by Western blot analysis; assay type: functional, cell-based; conditions: dose 1-4 µM
[18] = tested on: MDA-MB-231; assay: Induction of cell cycle arrest in human MDA-MB-231 cells assessed as accumulation of cells at sub-G1 phase at 4 uM incubated for 24 hrs by propidium iodide staining based flow cytometry analysis (reference value: 0.57%); assay type: functional
[19] = tested on: MDA-MB-231; assay: Induction of cell cycle arrest in human MDA-MB-231 cells assessed as accumulation of cells at S phase at 4 uM incubated for 24 hrs by propidium iodide staining based flow cytometry analysis (reference value: 15.50%); assay type: functional
[20] = tested on: MDA-MB-231; assay: Induction of cell cycle arrest in human MDA-MB-231 cells assessed as downregulation of cyclin B expression at 1 to 4 uM incubated for 24 hrs by Western blot analysis; assay type: functional, cell-based; conditions: dose 1-4 µM
[21] = tested on: MDA-MB-231; assay: Cytotoxicity against human MDA-MB-231 cells assessed as reduction in cell viability by CCK8 assay; assay type: functional, cell-based
[22] = tested on: MDA-MB-231; assay: Induction of cell cycle arrest in human MDA-MB-231 cells assessed as accumulation of cells at S phase at 2 uM incubated for 24 hrs by propidium iodide staining based flow cytometry analysis (reference value: 15.50%); assay type: functional
[23] = tested on: MDA-MB-231; assay: Induction of DNA damage in human MDA-MB-231 cells assessed as increase in gamma-H2AX fluorescence intensity at 4 uM measured after 24 hrs by immunofluorescence analysis; assay type: functional, cell-based
[24] = tested on: Quadruplex DNA; assay: Stabilization of c-MYC G4 quadruplex DNA (unknown origin) assessed as change in temperature incubated for 2 hrs in presence of KRAS by FRET assay; assay type: nucleic-acid assay
[25] = tested on: MDA-MB-231; assay: Upregulation of phosphorylated Chk2 in human MDA-MB-231 cells at 1 to 4 uM measured after 24 hrs by Western blot analysis; assay type: functional, cell-based; conditions: dose 1-4 µM
[26] = tested on: MDA-MB-231; assay: Induction of apoptosis in human MDA-MB-231 cells assessed as increase in early apoptotic cells at 1 to 4 uM incubated for 24 hrs by Annexin-V FITC/PI double staining based flow cytometry analysis; assay type: functional, cell-based; conditions: dose 1-4 µM
[27] = tested on: Quadruplex DNA; assay: Stabilization of c-MYC G4 quadruplex DNA KRAS (unknown origin) assessed as shift in temperature at which 50% protein unfold by circular dichroism melting assay
[28] = tested on: MDA-MB-231; assay: Induction of cell cycle arrest in human MDA-MB-231 cells assessed as accumulation of cells at G0/G1 phase at 1 uM incubated for 24 hrs by propidium iodide staining based flow cytometry analysis (reference value: 66.35%); assay type: functional
[29] = tested on: MDA-MB-231; assay: Induction of cell cycle arrest in human MDA-MB-231 cells assessed as accumulation of cells at G2/M phase at 4 uM incubated for 24 hrs by propidium iodide staining based flow cytometry analysis (reference value: 17.58%); assay type: functional
[30] = tested on: HeLa; assay: Cytotoxicity against human HeLa cells assessed as reduction in cell viability by CCK8 assay; assay type: functional, cell-based

- Activity [1]: Active
- ΔTm [5]: 7.1 °C
- T [10]: 34.6 °C
- Activity [12]: Active
- Activity [24]: Active
- ΔTm [27]: 11.2 °C
SMILES: CN1CCN(c2ccc(-c3nc(-c4ccc(-c5ccc(C(F)(F)F)cc5)cc4)[nH]c3-c3ccc(N4CCN(C)CC4)cc3)cc2)CC1
- Activity [2]: Active
- Activity [3]: Non-Toxic
- Activity [4]: Tde
- Activity [6]: 13.49%
- Activity [7]: Non-Toxic
- Activity [8]: 18.23%
- IC50 [9]: 0.87 µM
- Activity [11]: Non-Toxic
- inhibition [13]: Active
- Activity [14]: 76.42%
- inhibition [15]: Active
- Activity [16]: Active
- Activity [17]: Active
- Activity [18]: 44.98%
- Activity [19]: 6.09%
- Activity [20]: Active
- IC50 [21]: 1.84 µM
- Activity [22]: 11.56%
- Activity [23]: Active
- Activity [25]: Active
- Activity [26]: Active
- Activity [28]: 74.71%
- Activity [29]: 30.7%
- IC50 [30]: 2.69 µM

Reference: ChEMBL document CHEMBL5380876, “Non-fused imidazole-biphenyl analogs repress triple-negative breast cancer growth by mainly stabilizing the c-MYC G-quadruplex via a multi-site binding mode” (Bioorg Med Chem, 2023)
